Experimental data published in patent US20220332774A1, “THERAPEUTIC MITOCHONDRIAL PEPTIDES” (priority 2019, published 2022).

system: 3T3-L1 Mouse Adipocytes; assay: Free fatty acid levels in cultured 3T3-L1 mouse adipocytes (isoproterenol stimulated); assay type: cell-based; conditions: free fatty acid in medium; 5 μM peptide, 20-22 h pre-incubation then 3 h with 0.1 nM isoproterenol; isoproterenol alone = 100%
Method in brief: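 3T3-L1 cells differentiated 12 days, insulin withdrawn, then peptides added on day 13 at 5 μM (0.1% DMSO) for 20-22 h at 37° C. After 3 h in assay buffer, medium free fatty acids read at 540 nm. Values expressed as percent of 0.1 nM isoproterenol-alone control.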

Substance | Percent of Isoproterenol Control Activity [%]
130 (MTAPVKLQGVWM) [compound 130] | 110
197 (WVEVMMEVEIWCCEIVLGNSFSSQ) [compound 197] | 100
179 (MSSSMMGEVASC) [compound 179] | 102
60 (MLEIVMGMETYHMSNA) [compound 60] | 94
127 (MSTINQQVIITLTVNPTQACS) [compound 127] | 104
174 (MYYSDGYWGVSWGMGV) [compound 174] | 105
158 (MWEEAGRMSEGCLG) [compound 158] | 96
191 (LGWGWPGGWVWGGGFMVEERWWEL) [compound 191] | 101
163 (MWMPPTLPHIR) [compound 163] | 87
136 (MTNTLNSIHPPLP) [compound 136] | 124
142 (MVEVGYNVVRVV) [compound 142] | 97
144 (MVIICFEVSLISHCWVVISRLLM) [compound 144] | 96
180 (MVVGSWCWSLSWVVGMR) [compound 180] | 101
31 (MGEVGLLWLGRI) [compound 31] | 78
200 (RLLAWGNTWWQLLWNEGLFFWLEL) [compound 200] | 104
57 (MKPFTVHSTLQSNPFSSPWMTPL) [compound 57] | 102
154 (MVSSGDWYSWCE) [compound 154] | 89
138 (MTSPKIQNNNTPDHTANNQY) [compound 138] | 111
210 (MKVDATMDFT) [compound 210] | 95
19 (METDLDYSGLNSDHVGL) [compound 19] | 89
195 (LTSKYSNQPSTITHQLQLQSHPSP) [compound 195] | 110
168 (MYCNWDCSGE) [compound 168] | 108

Substance | Percent of Isoproterenol Control Activity [%]
109 (MQNPPHSSPHSSPLPRYSYLSPLLY) [compound 109] | 94
6 (MAIAVVYPKTTIIPPK) [compound 6] | 80
204 (RMGASIGSTTRLSTS) [compound 204] | 111
35 (MGGRWGLGWWRAG) [compound 35] | 98
23 (MFHLRYHNHRYPHRRQSI) [compound 23] | 94
103 (MPPKDKIWNLV) [compound 103] | 108
108 (MQFTLATPKCYGPGA) [compound 108] | 102
78 (MMAHLGKKPVSGG) [compound 78] | 96
88 (MMMTIECLHSHFPH) [compound 88] | 95
162 (MWLVLWLWML) [compound 162] | 106
129 (MSYRAHTPKMLVMPFPY) [compound 129] | 115
157 (MVVKGPLSEGGHPWGREGIWL) [compound 157] | 106
4 (MAHTFPLNKTSR) [compound 4] | 80
139 (MTWPTEQVTLGMTAQSYS) [compound 139] | 91
152 (MVRMLLVQWW) [compound 152] | 105
27 (MGCDDNVVDVVVT) [compound 27] | 87
15 (MDMVPQGKDEKL) [compound 15] | 90
30 (MGEGLEENPTNPITKPTLN) [compound 30] | 98
43 (MGVGMEWGLLLRRGR) [compound 43] | 103
58 (MKPMSPMRLY) [compound 58] | 105
97 (MNNSSSTVQP) [compound 97] | 105

system: C2C12 Cells; assay: Glucose utilization in cultured C2C12 cells (myotubes); assay type: cell-based, mouse; conditions: glucose concentration in medium relative to untreated cells; 5 μM peptide, 22 h
Method in brief: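 Differentiated mouse myotubes (5 days in 2% horse serum) serum-starved 5 h, then treated 22 h at 37 °C with peptide at 5 μM final (0.1% DMSO) in low-glucose (1 g/L) DMEM. Glucose remaining in medium measured colorimetrically at 570 nm. Expressed as percent of untreated control, from 2–3 experiments in triplicate.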

Substance | Percent of Control Activity [%]
130 (MTAPVKLQGVWM) [compound 130] | 103
197 (WVEVMMEVEIWCCEIVLGNSFSSQ) [compound 197] | 102
179 (MSSSMMGEVASC) [compound 179] | 105
60 (MLEIVMGMETYHMSNA) [compound 60] | 101
127 (MSTINQQVIITLTVNPTQACS) [compound 127] | 109
174 (MYYSDGYWGVSWGMGV) [compound 174] | 93
158 (MWEEAGRMSEGCLG) [compound 158] | 106
191 (LGWGWPGGWVWGGGFMVEERWWEL) [compound 191] | 95
163 (MWMPPTLPHIR) [compound 163] | 105
136 (MTNTLNSIHPPLP) [compound 136] | 99
142 (MVEVGYNVVRVV) [compound 142] | 95
144 (MVIICFEVSLISHCWVVISRLLM) [compound 144] | 105
180 (MVVGSWCWSLSWVVGMR) [compound 180] | 103
31 (MGEVGLLWLGRI) [compound 31] | 107
200 (RLLAWGNTWWQLLWNEGLFFWLEL) [compound 200] | 93
57 (MKPFTVHSTLQSNPFSSPWMTPL) [compound 57] | 107
154 (MVSSGDWYSWCE) [compound 154] | 107
138 (MTSPKIQNNNTPDHTANNQY) [compound 138] | 115
210 (MKVDATMDFT) [compound 210] | 92
19 (METDLDYSGLNSDHVGL) [compound 19] | 94
195 (LTSKYSNQPSTITHQLQLQSHPSP) [compound 195] | 112
168 (MYCNWDCSGE) [compound 168] | 103

Substance | Percent of Control Activity [%]
109 (MQNPPHSSPHSSPLPRYSYLSPLLY) [compound 109] | 95
6 (MAIAVVYPKTTIIPPK) [compound 6] | 100
204 (RMGASIGSTTRLSTS) [compound 204] | 95
35 (MGGRWGLGWWRAG) [compound 35] | 108
23 (MFHLRYHNHRYPHRRQSI) [compound 23] | 99
103 (MPPKDKIWNLV) [compound 103] | 98
108 (MQFTLATPKCYGPGA) [compound 108] | 96
78 (MMAHLGKKPVSGG) [compound 78] | 106
88 (MMMTIECLHSHFPH) [compound 88] | 87
162 (MWLVLWLWML) [compound 162] | 103
129 (MSYRAHTPKMLVMPFPY) [compound 129] | 110
157 (MVVKGPLSEGGHPWGREGIWL) [compound 157] | 102
4 (MAHTFPLNKTSR) [compound 4] | 101
139 (MTWPTEQVTLGMTAQSYS) [compound 139] | 100
152 (MVRMLLVQWW) [compound 152] | 110
27 (MGCDDNVVDVVVT) [compound 27] | 95
15 (MDMVPQGKDEKL) [compound 15] | 96
30 (MGEGLEENPTNPITKPTLN) [compound 30] | 102
43 (MGVGMEWGLLLRRGR) [compound 43] | 101
58 (MKPMSPMRLY) [compound 58] | 101
97 (MNNSSSTVQP) [compound 97] | 95

system: H4-IIE Cells; assay: Glucose production in cultured H4-IIE cells; assay type: cell-based, rat; conditions: glucose concentration in medium relative to untreated cells; 5 μM peptide, 24 h
Method in brief: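 Rat H4-IIE hepatoma cells primed overnight in glucose-free DMEM with 2 mM pyruvate and 10 mM lactate, then treated 24 h at 37 °C with 5 μM peptide (0.1% DMSO; concentration assumes ~2000 Da). Medium glucose measured colorimetrically at 570 nm. Values are percent of untreated-cell glucose production; 0.5-1 nM insulin served as inhibitor reference.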

Substance | Percent of Control Activity [%]
130 (MTAPVKLQGVWM) [compound 130] | 97
197 (WVEVMMEVEIWCCEIVLGNSFSSQ) [compound 197] | 105
179 (MSSSMMGEVASC) [compound 179] | 100
60 (MLEIVMGMETYHMSNA) [compound 60] | 105
127 (MSTINQQVIITLTVNPTQACS) [compound 127] | 88
174 (MYYSDGYWGVSWGMGV) [compound 174] | 110
158 (MWEEAGRMSEGCLG) [compound 158] | 127
191 (LGWGWPGGWVWGGGFMVEERWWEL) [compound 191] | 111
163 (MWMPPTLPHIR) [compound 163] | 110
136 (MTNTLNSIHPPLP) [compound 136] | 94
142 (MVEVGYNVVRVV) [compound 142] | 103
144 (MVIICFEVSLISHCWVVISRLLM) [compound 144] | 105
180 (MVVGSWCWSLSWVVGMR) [compound 180] | 106
31 (MGEVGLLWLGRI) [compound 31] | 101
200 (RLLAWGNTWWQLLWNEGLFFWLEL) [compound 200] | 97
57 (MKPFTVHSTLQSNPFSSPWMTPL) [compound 57] | 112
154 (MVSSGDWYSWCE) [compound 154] | 98
138 (MTSPKIQNNNTPDHTANNQY) [compound 138] | 92
210 (MKVDATMDFT) [compound 210] | 100
19 (METDLDYSGLNSDHVGL) [compound 19] | 99
195 (LTSKYSNQPSTITHQLQLQSHPSP) [compound 195] | 108
168 (MYCNWDCSGE) [compound 168] | 120

Substance | Percent of Control Activity [%]
109 (MQNPPHSSPHSSPLPRYSYLSPLLY) [compound 109] | 105
6 (MAIAVVYPKTTIIPPK) [compound 6] | 122
204 (RMGASIGSTTRLSTS) [compound 204] | 107
35 (MGGRWGLGWWRAG) [compound 35] | 100
23 (MFHLRYHNHRYPHRRQSI) [compound 23] | 96
103 (MPPKDKIWNLV) [compound 103] | 97
108 (MQFTLATPKCYGPGA) [compound 108] | 104
78 (MMAHLGKKPVSGG) [compound 78] | 114
88 (MMMTIECLHSHFPH) [compound 88] | 112
162 (MWLVLWLWML) [compound 162] | 113
129 (MSYRAHTPKMLVMPFPY) [compound 129] | 90
157 (MVVKGPLSEGGHPWGREGIWL) [compound 157] | 109
4 (MAHTFPLNKTSR) [compound 4] | 116
139 (MTWPTEQVTLGMTAQSYS) [compound 139] | 97
152 (MVRMLLVQWW) [compound 152] | 89
27 (MGCDDNVVDVVVT) [compound 27] | 100
15 (MDMVPQGKDEKL) [compound 15] | 88
30 (MGEGLEENPTNPITKPTLN) [compound 30] | 102
43 (MGVGMEWGLLLRRGR) [compound 43] | 112
58 (MKPMSPMRLY) [compound 58] | 112
97 (MNNSSSTVQP) [compound 97] | 122
